Converted amounts (≈) assume the structure as drawn.
What was measured:
C. neoformans ATCC 34664 = experiment: Antifungal susceptibility, broth dilution MIC (CLSI M27-A2); assay type: cell-based, Cryptococcus neoformans; conditions: Cryptococcus neoformans, ATCC34664; C. neoformans ATCC 34664; broth dilution, RPMI 1640 with MOPS, 48 hours; read-out: Activity against organisms (MIC50) Cn01
Method: (§1) The compounds of Formula 1 were tested for antifungal activity against Candida albicans, C. glabrata, C. krusei, C. tropicalis, Cryptococcus neoformans, Aspergillus fumigatus, A. niger and Fusarium proliferatum. In vitro evaluation of antifungal activity was performed by determining the minimum inhibitory concentration (MIC) following standard methods (CLSI: Reference method for broth dilution antifungal susceptibility testing of yeasts; Approved standard, second edition M27-A2, 2002; CLSI: Reference method for broth dilution antifungal susceptibility testing of filamentous fungi; Approved standard M38-A, 2002). Anti-fungal susceptibility testing of these anti-fungal compounds was done by broth dilution method using RPMI 1640 medium with MOPS buffer. Known anti-fungal agent fluconazole was used as positive control. End points were determined after 48 hours visually and by using spectrophotometer wherever necessary. Different dilutions were tried and various sets of experiments performed. The activity parameters are enumerated in Table 4.

C. krusei ATCC 6258 = experiment: as above; assay type: cell-based, Candida krusei; conditions: Pichia kudriavzevii, ATCC6258; C. krusei ATCC 6258; broth dilution, RPMI 1640 with MOPS, 48 hours; read-out: Activity against organisms (MIC50) Ck01
Method: as §1

[1] = tested on: F. proliferatum ATCC 10052; experiment: Antifungal susceptibility, broth dilution MIC (CLSI M38-A); assay type: cell-based; conditions: Fusarium proliferatum, ATCC10052; F. proliferatum ATCC 10052; broth dilution, RPMI 1640 with MOPS, 48 hours; read-out: Activity against organisms (MIC50) Fp01
Method: as §1

A. fumigatus ATCC 46645 = experiment: as above; assay type: cell-based; conditions: Aspergillus fumigatus, ATCC46645; A. fumigatus ATCC 46645; broth dilution, RPMI 1640 with MOPS, 48 hours; read-out: Activity against organisms (MIC50) Afm01
Method: as §1

A. niger ATCC 16404 = experiment: as above; assay type: cell-based; conditions: Aspergillus niger, ATCC16404; A. niger ATCC 16404; broth dilution, RPMI 1640 with MOPS, 48 hours; read-out: Activity against organisms (MIC50) An01
Method: as §1

C. glabrata ATCC 90030 = experiment: Antifungal susceptibility, broth dilution MIC (CLSI M27-A2); assay type: cell-based, Candida glabrata; conditions: Nakaseomyces glabratus, ATCC90030; C. glabrata ATCC 90030; broth dilution, RPMI 1640 with MOPS, 48 hours; read-out: Activity against organisms (MIC50) Cg01
Method: as §1

C. albicans ATCC 24433 = experiment: as above; assay type: cell-based; conditions: Candida albicans, ATCC24433; C. albicans ATCC 24433; broth dilution, RPMI 1640 with MOPS, 48 hours; read-out: Activity against organisms (MIC50) Ca01
Method: as §1

C. tropicalis ATCC 750 = experiment: as above; assay type: cell-based, Candida tropicalis; conditions: Candida tropicalis, ATCC750; C. tropicalis ATCC 750; broth dilution, RPMI 1640 with MOPS, 48 hours; read-out: Activity against organisms (MIC50) Ct01
Method: as §1

Row | SMILES | MIC50 (C. neoformans ATCC 34664) | MIC50 (C. krusei ATCC 6258) | MIC50 [1] | MIC50 (A. fumigatus ATCC 46645) | MIC50 (A. niger ATCC 16404) | MIC50 (C. glabrata ATCC 90030) | MIC50 (C. albicans ATCC 24433) | MIC50 (C. tropicalis ATCC 750)
1 | Cc1ccc(OCc2cn(CC(O)(Cn3cncn3)c3ccc(F)cc3F)nn2)cc1 (stereo not drawn) [Compound 1D-5, 2-(2,4-Difluorophenyl)-1-(4-(4-methylphenyloxy)methyl-1H-1,2,3-triazol-1-yl)-3-(1H-1,2,4-triazol-1-yl)propan-2-ol] | 2 µg/mL (≈ 4.69 µM) | 8 µg/mL (≈ 18.8 µM) | > 128 µg/mL | 64 µg/mL (≈ 150 µM) | 64 µg/mL (≈ 150 µM) | 0.03 µg/mL (≈ 0.0704 µM) | 0.12 µg/mL (≈ 0.281 µM) | 0.5 µg/mL (≈ 1.17 µM)
2 | Cc1cc(C#N)c(N)c(C#N)c1-c1ccc(OCc2cn(CC(O)(Cn3cncn3)c3ccc(F)cc3F)nn2)cc1 (stereo not drawn) [Compound 1D-6, 3-Amino-4′-((1-(2-(2,4-difluorophenyl)-2-hydroxy-3-(1H-1,2,4-triazol-1-yl)propyl)-1H-1,2,3-triazol-4-yl)methoxy)-6-methylbiphenyl-2,4-dicarbonitrile] | 1 µg/mL (≈ 1.76 µM) | > 8 µg/mL | > 8 µg/mL | > 8 µg/mL | > 8 µg/mL | 0.5 µg/mL (≈ 0.881 µM) | 0.5 µg/mL (≈ 0.881 µM) | 2 µg/mL (≈ 3.52 µM)
3 | C#CCOc1ccc(/C=C/C(=O)c2ccc(N3CCN(CCC)CC3)cc2)cc1 [Compound 6A-1, (E)-3-(4-(Prop-2-yn-1-yloxy)phenyl)-1-(4-(4-propylpiperazin-1-yl)phenyl)prop-2-en-1-one] | > 4 µg/mL | > 4 µg/mL | > 4 µg/mL | > 4 µg/mL | > 4 µg/mL | > 4 µg/mL | > 4 µg/mL | > 4 µg/mL
4 | C#CCOc1ccc(/C=C/C(=O)c2ccc(N3CCN(CCCC)CC3)cc2)cc1 [Compound 6A-2] | > 4 µg/mL | > 4 µg/mL | > 4 µg/mL | > 4 µg/mL | > 4 µg/mL | > 4 µg/mL | > 4 µg/mL | > 4 µg/mL
5 | C#CCOc1ccc(/C=C/C(=O)c2ccc(N3CCN(Cc4ccc(OC)cc4)CC3)cc2)cc1 [Compound 6A-4] | > 8 µg/mL | > 8 µg/mL | > 8 µg/mL | > 8 µg/mL | > 8 µg/mL | > 8 µg/mL | > 8 µg/mL | > 8 µg/mL
6 | OCc1cn(CC(O)(Cn2cncn2)c2ccc(F)cc2F)nn1 (stereo not drawn) [Compound 8A-1, 2-(2,4-Difluorophenyl)-1-(4-(hydroxymethyl)-1H-1,2,3-triazol-1-yl)-3-(1H-1,2,4-triazol-1-yl)propan-2-ol] | > 128 µg/mL | > 128 µg/mL | > 128 µg/mL | > 128 µg/mL | > 128 µg/mL | 2 µg/mL (≈ 5.95 µM) | 32 µg/mL (≈ 95.2 µM) | > 128 µg/mL
7 | COc1ccc(/C=C/C(=O)c2ccc(OC)cc2)cc1 [Compound 9A-1] | > 4 µg/mL | > 4 µg/mL | > 4 µg/mL | > 4 µg/mL | > 4 µg/mL | > 4 µg/mL | > 4 µg/mL | > 4 µg/mL
8 | COc1ccc(/C=C/C(=O)c2ccc(O)cc2)cc1 [Compound 9A-2] | > 32 µg/mL | > 32 µg/mL | > 32 µg/mL | > 32 µg/mL | > 32 µg/mL | > 32 µg/mL | > 32 µg/mL | > 32 µg/mL
9 | COc1ccc(C(=O)/C=C/c2ccc(Cl)cc2)cc1 [Compound 9A-3] | > 4 µg/mL | > 4 µg/mL | > 4 µg/mL | > 4 µg/mL | > 4 µg/mL | > 4 µg/mL | > 4 µg/mL | > 4 µg/mL
